# What was measured:
# [1] = Metabolic stability in human liver hepatocytes (substrate depletion, intrinsic clearance); format: in vitro ADME; settings: 37° C., Williams E Media, LC-MS/MS depletion
# Text: Determining the in vitro metabolic stability of a new chemical entity (NCE) is a very useful tool within drug discovery. A metabolic stability study will determine the in vitro intrinsic clearance (CLint) of a compound. The CLint value represents a measure of enzyme activity toward an NCE and is independent of other physiological factors such as blood flow. Determination of CLint within drug discovery helps to identify metabolic liabilities within a compound series, and ultimately assist in the identification of compounds with improved metabolic stability. The CLint value determined in vitro can be used to predict in vivo clearance (using species specific scaling factors) in pre-clinical species and ultimately in human. The liver is the primary organ involved in drug metabolism, of which there are two pathways-Phase I and Phase II. Phase I metabolism is primarily oxidative with the majority of these oxidations catalysed by cytochrome P450 enzymes (CYPs) which are located in the smooth endoplasmic reticulum (ER) in the liver. Phase II metabolism is catalysed by various conjugative enzymes which are located mainly in the ER and the cytosol. The in vitro systems used to study drug metabolism are mainly subcellular fractions such as liver microsomes or whole cells (hepatocytes) isolated from the liver. Hepatocytes, being whole cells, contain both Phase I and Phase II metabolizing enzymes and produce their own cofactors. This assay determines the metabolic stability of test compounds in human liver hepatocytes using the substrate depletion approach. The lower limit of the assay is a T1/2 >462 min and a CLint […]. Therefore the upper limit of the assay is 277 μL/min/106 cells. Any CLint value higher than this should be given an out of range value. Hepatocytes were plated in Williams E Media with added L-glutamine, compounds were added as 1 mM DMSO solution and incubated at 37° C. Compound depletion was measured by LC-MS/MS at multiple time points following quenching with cold acetonitrile. CLint was calculated from the following equation:
# CLint(μl/min/106cells)=(In(2)/T1/2)*1000/cell density(10^6cells/mL)
# [2] = target: T1, KRAS G12D (Homo sapiens, UniProt P01116, G12D); test: HTRF nucleotide exchange assay, KRAS G12D; format: biochemical; settings: class symbols; for IC50: HTRF nucleotide exchange assay (NEA)
# T1 construct: aa1-188 KRAS WT, HRAS WT, NRAS WT, or KRAS containing the G12D
# [3] = target: T2, KRAS WT (Homo sapiens, UniProt P01116); test: HTRF nucleotide exchange assay, KRAS WT; format: biochemical; settings: class symbols; for IC50: HTRF nucleotide exchange assay (NEA)
# T2 construct: aa1-188 KRAS WT
SMILES,hepatocyte CLint [1],IC50 [2],IC50 [3],KRAS^G12D NEA [2],KRAS^WT NEA [3]
"C#Cc1c(F)ccc2cc(O)cc(-c3ccc4c(N5CCCOCC5)nc(OC[C@@]56CCCN5C[C@H](F)C6)nc4c3F)c12 [WO2022258974 Example 26, reference compound]",94.6 µL/min/1e6 cells,,,,
"C#Cc1c(F)ccc2cc(O)cc(-c3ncc4c(N5CCCCCC5)nc(OC[C@@]56CCCN5C[C@H](F)C6)nc4c3F)c12 [WO2022248885 Example 84, reference compound]",95.6 µL/min/1e6 cells,,,,
"C#Cc1c(F)ccc2cc(O)cc(-c3cc4nc(OC[C@@]56CCCN5C[C@H](F)C6)nc(N5CCCOCC5)c4c4cn(C)nc34)c12 [Example 2, 5-ethynyl-6-fluoro-4-[2-methyl-9-(1,4-oxazepan-4-yl)-7-[[(2R,8S)-2-fluoro-1,2,3,5,6,7-hexahydropyrrolizin-8-yl]methoxy]pyrazolo[4,3-f]quinazolin-4-yl]naphthalen-2-ol]",54.2 µL/min/1e6 cells,≤ 10 nM,≤ 10 nM,,
"CCc1c(F)ccc2cc(O)cc(-c3cc4nc(OC[C@@]56CCCN5C[C@H](F)C6)nc(N5CCCCCC5)c4c4cn(C)nc34)c12 [Example 9, 4-[9-(azepan-1-yl)-2-methyl-7-[[(2R,8S)-2-fluoro-1,2,3,5,6,7-hexahydropyrrolizin-8-yl]methoxy]pyrazolo[4,3-f]quinazolin-4-yl]-5-ethyl-6-fluoro-naphthalen-2-ol]",42.5 µL/min/1e6 cells,100 to 10000 nM,100 to 10000 nM,,
"C#Cc1c(F)ccc2cc(O)cc(-c3cc4nc(OC[C@@]56CCCN5C[C@H](F)C6)nc(N5CCCCCC5)c4c4cn(C)nc34)c12 [Example 12, 4-[9-(azepan-1-yl)-2-methyl-7-[[(2R,8S)-2-fluoro-1,2,3,5,6,7-hexahydropyrrolizin-8-yl]methoxy]pyrazolo[4,3-f]quinazolin-4-yl]-5-ethynyl-6-fluoro-naphthalen-2-ol]",47.8 µL/min/1e6 cells,10 to 100 nM,10 to 100 nM,,
"CCc1c(F)ccc2cc(O)cc(-c3c(C)c4nc(OCC5(C)CC(O)CN5)nc(N5CCOCC(C)(O)C5)c4c4cn(C)nc34)c12 (centres unmarked) [Example 145, 4-[4-(8-ethyl-7-fluoro-3-hydroxy-1-naphthyl)-7-[(4-hydroxy-2-methyl-pyrrolidin-2-yl)methoxy]-2,5-dimethyl-pyrazolo[4,3-f]quinazolin-9-yl]-6-methyl-1,4-oxazepan-6-ol]",,≤ 10 nM,≤ 10 nM,,
"CCc1c(F)ccc2cc(O)cc(-c3c(C)c4nc(OCC5(CO)CC5)nc(N5CC6CCC(C5)N6)c4c4cn(C)nc34)c12 [Example 242, 4-[9-(3,8-diazabicyclo[3.2.1]octan-3-yl)-7-[[1-(hydroxymethyl)cyclopropyl]methoxy]-2,5-dimethyl-pyrazolo[4,3-f]quinazolin-4-yl]-5-ethyl-6-fluoro-naphthalen-2-ol]",,≤ 10 nM,100 to 10000 nM,,
"CCc1c(F)ccc2cc(O)cc(-c3cc4nc(OC[C@@]56CCCN5C[C@H](F)C6)nc(N5CCC(C)(OC)CC5)c4c4cn(C)nc34)c12 [Example 119, 5-ethyl-6-fluoro-4-[9-(4-methoxy-4-methyl-1-piperidyl)-2-methyl-7-[[(2R,8S)-2-fluoro-1,2,3,5,6,7-hexahydropyrrolizin-8-yl]methoxy]pyrazolo[4,3-f]quinazolin-4-yl]naphthalen-2-ol]",,100 to 10000 nM,100 to 10000 nM,,
"CCc1c(F)ccc2cc(O)cc(-c3c(C)c4nc(OCC5(CF)COC5)nc(N5CC6CCC5CN6)c4c4cn(C)nc34)c12 (centres unmarked) [Example 240, 4-[9-(2,5-diazabicyclo[2.2.2]octan-2-yl)-7-[[3-(fluoromethyl)oxetan-3-yl]methoxy]-2,5-dimethyl-pyrazolo[4,3-f]quinazolin-4-yl]-5-ethyl-6-fluoro-naphthalen-2-ol]",,10 to 100 nM,100 to 10000 nM,,
"CCc1c(F)ccc2cc(O)cc(-c3c(F)c4nc(OCC5(CO)CC5)nc(N5CCOCC(C)(O)C5)c4c4cn(C)nc34)c12 (centres unmarked) [Example 188, 4-[4-(8-ethyl-7-fluoro-3-hydroxy-1-naphthyl)-5-fluoro-7-[[1-(hydroxymethyl)cyclopropyl]methoxy]-2-methyl-pyrazolo[4,3-f]quinazolin-9-yl]-6-methyl-1,4-oxazepan-6-ol]",,≤ 10 nM,≤ 10 nM,,
CCc1c(F)ccc2cc(O)cc(-c3c(C)c4nc(OCC5(CF)COC5)nc(N5CCCn6nc(C(=O)N(C)C)cc6C5)c4c4cn(C)nc34)c12 [Example 215],,10 to 100 nM,100 to 10000 nM,,
"CCc1c(F)ccc2cc(O)cc(-c3c(F)c4nc(OCC5(C#N)CCOC5)nc(N5CCCNC(=O)C5)c4c4cn(C)nc34)c12 (centres unmarked) [Example 244, 3-[[4-(8-ethyl-7-fluoro-3-hydroxy-1-naphthyl)-5-fluoro-2-methyl-9-(3-oxo-1,4-diazepan-1-yl)pyrazolo[4,3-f]quinazolin-7-yl]oxymethyl]tetrahydrofuran-3-carbonitrile]",,100 to 10000 nM,100 to 10000 nM,,
"CCc1c(F)ccc2cc(O)cc(-c3c(C)c4nc(OC[C@@H]5C[C@@H](F)CN5)nc(N5CCOCC(C)(O)C5)c4c4cn(C)nc34)c12 (stereo partly drawn) [Example 140, 4-[4-(8-ethyl-7-fluoro-3-hydroxy-1-naphthyl)-2,5-dimethyl-7-[[(2S,4R)-4-fluoropyrrolidin-2-yl]methoxy]pyrazolo[4,3-f]quinazolin-9-yl]-6-methyl-1,4-oxazepan-6-ol]",,≤ 10 nM,≤ 10 nM,,
"CCc1c(F)ccc2cc(O)cc(-c3c(F)c4nc(OCC5(CN6CCC(C(F)(F)F)CC6)CC5)nc(N5CCOCC(C)(O)C5)c4c4cn(C)nc34)c12 (centres unmarked) [Example 218, 4-[4-(8-ethyl-7-fluoro-3-hydroxy-1-naphthyl)-5-fluoro-2-methyl-7-[[1-[[4-(trifluoromethyl)-1-piperidyl]methyl]cyclopropyl]methoxy]pyrazolo[4,3-f]quinazolin-9-yl]-6-methyl-1,4-oxazepan-6-ol]",,≤ 10 nM,≤ 10 nM,,
"CCc1c(F)ccc2cc(O)cc(-c3cc4nc(OC[C@@]56CCCN5C[C@H](F)C6)nc(N5CCOCC(C)C5)c4c4cn(C)nc34)c12 (stereo partly drawn) [Example 121, 5-ethyl-6-fluoro-4-[2-methyl-9-(6-methyl-1,4-oxazepan-4-yl)-7-[[(2R,8S)-2-fluoro-1,2,3,5,6,7-hexahydropyrrolizin-8-yl]methoxy]pyrazolo[4,3-f]quinazolin-4-yl]naphthalen-2-ol]",,≤ 10 nM,≤ 10 nM,,
"Cc1cc(N)nc(-c2cc3nc(OCC45CCCN4CC(F)C5)nc(N4CCCOCC4)c3c3cn(C)nc23)c1C(F)(F)F [Example 16, 4-methyl-6-[2-methyl-9-(1,4-oxazepan-4-yl)-7-[(2R,8S)-2-fluoro-1,2,3,5,6,7-hexahydropyrrolizin-8-yl]methoxy]pyrazolo[4,3-f]quinazolin-4-yl]-5-(trifluoromethyl)pyridin-2-amine]",,,,D (<49% inhibition at 10 μM),D (<49% inhibition at 10 μM)
"CCc1c(F)ccc2cc(O)cc(-c3c(C)c4nc(OC[C@]5(C)CCCN5)nc(N5CCOCC(C)(O)C5)c4c4cn(C)nc34)c12 (stereo partly drawn) [Example 139, 4-[4-(8-ethyl-7-fluoro-3-hydroxy-1-naphthyl)-2,5-dimethyl-7-[[(2S)-2-methylpyrrolidin-2-yl]methoxy]pyrazolo[4,3-f]quinazolin-9-yl]-6-methyl-1,4-oxazepan-6-ol]",,≤ 10 nM,≤ 10 nM,,
